Tested on: nitrification in soil sampled fresh from a field (e.g. Limburgerhof)
Assay: Soil nitrification inhibition test (48 well plate, ammonium sulfate + NaClO3, colour reaction read at 540 nm)
Details: dose of 10 ppm, room temperature, up to 72 hrs
Description: Soil was sampled fresh from a field (e.g. Limburgerhof), dried and sieved through a 500 μm sieve. Approximately 200 mg of soil were placed into each well of a 48 well plate. Compounds, or DMSO alone, were added at a concentration of 10 ppm, dissolved in 1% DMSO. 6 μmol ammonium sulfate was added per well as well as 4.8 mg NaClO3.
Subsequently, the samples were incubated at room temperature for up to 72 hrs. After the incubation period 64 mg KCl were added and mixed. 25 μl of the supernatant were placed into a fresh plate and 260 μl of a color reaction solution (from Merck Nr 1.11799.0100) were added.
Measurements were taken with a Tecan plate Reader at 540 nm wavelength.
The inhibition in % is calculated by the equation [(a−b)/a]×100, wherein a is the nitrification rate in the presence of the control (which is assumed to be 100%), and b is the nitrification rate in the presence of the tested compound.

Compared with `C#CCOc1ccc(NC(=O)N(C)C)cc1Cl`, `C#CCOc1cc(NC=O)c(F)cc1Cl` is lower in “Rating (inhibition; best rating obtained for a compound)” value: 55% for the first, 48% for the second.

First: C#CCOc1ccc(OC)cc1
Second: C#CCOc1ccc(OCC#C)cc1
The “Rating (inhibition; best rating obtained for a compound)” value of the first is lower: 58% for the first, 66% for the second.

Going from `C#CCOc1cccc(C(O)C#C)c1` (stereo not shown) to `C#CCOc1ccc(C#N)cc1`, the “Rating (inhibition; best rating obtained for a compound)” value falls from 61% to 53%.

Going from `C#CCOc1ccc(Cl)cc1` to `C#CCOc1ccc(C(=O)N2CCOCC2)cc1`, the “Rating (inhibition; best rating obtained for a compound)” value falls from 59% to 57%.

First: C#CCOc1cc(N)c(F)cc1Cl
Second: C#CCOc1cc(NC(=S)N(N)CCO)c(F)cc1Cl
The “Rating (inhibition; best rating obtained for a compound)” value of the first is higher: 62% for the first, 56% for the second.
